SMILES strings stand for the structures. The source made the active and inactive calls.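 How the source made its calls: active means inhibition of 30% or more at any tested concentration; inactive means the rest.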

The target of one test is M17 leucyl aminopeptidase (Plasmodium falciparum 3D7). The test can be described thus: Inhibition of P. falciparum M17 aminopeptidase – biochemical, QFRET, dose response (AID 588688). The note with it: recombinant PfM17LAP, H-Leu-NHMec fluorogenic substrate cleavage.
On to `O=C(CSc1nccc(=O)[nH]1)Nc1ccc(N2CCOCC2)cc1`, for which the IC50 is 17.5 µM.

Take `COC(=O)c1c(NC(=O)C2CC=CCC2C(=O)O)sc(C)c1-c1ccc(C)cc1` (configuration not stated): the 50% inhibitory concentration (IC50) is 5.13 µM.

For the molecule `CC1=C(C)CC(C(=O)Nc2ccc(Oc3ccc(Cl)cc3)cc2)C(C(=O)O)C1` (configuration not stated), the concentration for half-maximal inhibition (IC50) is 46.6 µM.

Regarding `O=C(CSc1nc(O)cc(=O)[nH]1)Nc1ccccc1`, the half-inhibitory concentration (IC50) is 101 µM.

Turning to `CCn1c2ccccc2c2cc(NC(=O)CSc3nc(C)cc(=O)[nH]3)ccc21`, the IC50 is 10.8 µM.

Take `COc1ccc(-c2nnc(NC(=O)C3CC(C)=C(C)CC3C(=O)O)s2)cc1` (configuration not stated): the IC50 was 96.9 µM.

Take `Cc1cc(SCC(=O)Nc2ccccc2C(=O)O)nc2ccccc12`: the IC50 was 17.1 µM.

For the molecule `COc1cc(NC(=O)CSc2ccccc2)c(C(=O)O)cc1OC`, the IC50 was 25.6 µM.

Take `Cc1ccc(NC(=O)CSc2nc(O)cc(=O)n2Cc2ccccc2)cc1`: the concentration for half-maximal inhibition (IC50) was 33.5 µM.

With `O=C(Cc1cccc2ccccc12)NO`, the 50% inhibitory concentration (IC50) was 6.11 µM.

On to `COc1ccc(OCCC(=O)NO)cc1`, for which the concentration for half-maximal inhibition (IC50) is 65.6 µM.

Consider `CC1=C(C)CC(C(=O)Nc2nc(-c3cc(C)ccc3C)c(C)s2)C(C(=O)O)C1` (configuration not stated), for which the IC50 is 58.8 µM.

Turning to `O=C(Cc1ccc2ccccc2c1)NO`, the IC50 is 0.79 µM.

Regarding `O=C(CSc1nccc(=O)[nH]1)Nc1ccc(Oc2ccccc2)cc1`, the IC50 was 23.6 µM.

Staying with this test, now noted: recombinant PfM17LAP, H-Leu-NHMec fluorogenic substrate cleavage; at 100 µM (top of the series).
For the molecule `O=C(O)c1ccccc1C(=O)Nc1nc2c(s1)CCCC2`, the inhibition entry is “inactive”.

On to `COC(=O)c1ccccc1NC(=O)c1cc2cc3ccc(C)cc3nc2s1`, for which the inhibition result was “inactive”.

`NC(N)=NCCC[C@H](N)C(=O)NO`: the inhibition entry was “inactive”.

In the case of `CC(C)C[C@H](N)C(=O)NO`, the inhibition result was “inactive”.

Consider `COC(=O)c1ccccc1NC(=O)c1ccc2c(Cl)c3c(nc2c1)CCC3`, for which the inhibition result was “inactive”.

As for `O=C(CSc1ccccc1)Nc1cccc2c1C(=O)NC2=O`, the inhibition entry is “inactive”.

On to `COC(=O)c1c(NC(=O)c2ccccc2C(=O)O)sc2c1CCCC2`, for which the inhibition entry was “inactive”.

Consider `CCC(C)(C)C1CCc2c(sc(NC(=O)C3CC(C)=C(C)CC3C(=O)O)c2C(=O)OC)C1` (configuration not stated), for which the inhibition result was “inactive”.

With `COc1cc(NC(=O)c2ccc(-c3ccccc3)cc2)c(C(=O)O)cc1OC`, the inhibition entry is “inactive”.

Take `O=C(Nc1ccc(Cl)cc1)Nc1ccccc1C(=O)O`: the inhibition result is “inactive”.

In the case of `COC(=O)c1cc(OC)c(OC)cc1NC(=O)c1sc2nc(C)ccc2c1N`, the inhibition entry is “inactive”.

For the molecule `CC1CCc2sc(C(=O)Nc3cccc4c3C(=O)NC4)cc2C1` (configuration not stated), the inhibition result is “inactive”.

In the case of `N[C@@H](Cc1c[nH]c2ccccc12)C(=O)NO`, the inhibition result is “inactive”.
